Source: paper PMC8535469, “Insight into the Binding and Hydrolytic Preferences of hNudt16 Based on Nucleotide Diphosphate Substrates” (International Journal of Molecular Sciences, 2021)
Like-named read-outs stand apart in the source and are kept apart here.

How the values were obtained:
hNudt16E76Q [1] = biological target: T1, hNudt16E76Q (Homo sapiens, UniProt Q96DE0, E76Q); assay: Thermal stability of hNudt16E76Q with ligands, dye-free nanoDSF; assay type: binding; conditions: for Tm, nanoDSF (Dye-Free) / ∆Tm, nanoDSF (Dye-Free): 5 µM hNudt16E76Q, 20 mM MgCl2, 0.5 mM ligand; for ∆Tm, nanoDSF (Dye-Free): relative to apo
T1 construct: 4xHis (four added histidines); made in house; host or cells: E. coli Rosetta 2 (DE3), pET16b
Description: (§1) Protein thermal stability in the presence of various ligands was measured using two DSF methods: assays with SYPRO orange dye and dye-free assays. DSF assays with SYPRO orange dye were performed at specific ligand concentrations for each protein–ligand pair. This measurement was performed as described in Section 4.6.1, with a constant MgCl2 concentration of 20 mM and a concentration of the tested ligand maintained at 0.5 mM. DSF dye-free measurements were performed using a Prometheus NT.48 nanoDSF device (NanoTemper Technologies, München, Germany). The composition of the samples was identical to that in the DSF with SYPRO orange dye measurements, without the addition of any dye. […] The measurements were performed at a single ligand concentration for all ligands. After 10 min of pre-incubation, the samples were loaded into standard capillaries (NanoTemper Technologies, München, Germany). […] We fitted the melting temperatures (Tm) globally for at least three independent experiments (but separately for different DSF methods).

hNudt16E76Q [2] = biological target: T1, hNudt16E76Q; assay: Thermal stability of hNudt16E76Q with ligands, DSF with SYPRO Orange; assay type: binding; conditions: 5 µM hNudt16E76Q, 20 mM MgCl2, 0.5 mM ligand, 4× SYPRO Orange; for ∆Tm, DSF (with SYPRO Orange): relative to apo
Description: The protein thermal stability of wild-type hNudt16 and all tested mutants in the presence of increasing Mg^2+ ion concentration was measured using DSF with SYPRO orange dye on CFX RT-PCR (Bio-Rad, Hercules, CA, USA). This method is based on the change in fluorescence of the SYPRO orange dye in an aqueous buffer, which is strongly quenched, while its binding to the exposed hydrophobic regions of thermally unfolded protein results in an increased fluorescence. The optimal concentrations of protein, SYPRO orange dye, and buffer composition, in particular ion content, were determined. The samples were prepared and measured in clear 96-well multiplate PCR plates for RT-PCR (Bio-Rad, Hercules, CA, USA). […] The individual components of the solution were added in equal volumes to each well, with a final sample volume of 25 μL/well. The samples were gently mixed, and the 96-well plate was covered with optically clear PCR sealing tape (Bio-Rad, Hercules, CA, USA) to prevent evaporation. […] The data processing procedure was performed using Bio-Rad CFX Manager (version 1.6.541.1028), and melting point temperatures were calculated as the minimum of the first derivative plot.
as §1

hNudt16E76Q [3] = biological target: T1, hNudt16E76Q; assay: Microscale thermophoresis (MST) binding, two independent binding sites model; conditions: for ΔGdiss1 (for Kd1): calculated as −RTlnKd from MST Kd1; for ΔGdiss2 (for Kd2): calculated as −RTlnKd from MST Kd2
Description: Binding constants for protein–ligand pairs were established using the MST method. The hNudt16 E76Q was labeled with RED-tris-NTA 2nd Generation dye (Monolith HIS-tag labeling Kit, NanoTemper Technologies, München, Germany) according to the manufacturer’s instructions. Measurements were carried out in a wide range of ligand concentrations, selected after preliminary tests for each of the ligands. The results obtained were used to determine of binding parameters for a given ligand. Each MST measurement consisted of a series of 16 serial 1:2 dilutions of the ligand, and was performed at a constant dye-labeled protein concentration of 50 nM. After 10 min of pre-incubation, dye-labeled protein–ligand samples were manually loaded into Monolith™ NT.115 Premium Capillaries (NanoTemper Technologies, München, Germany) and analyzed using the Monolith NT.115 (NanoTemper Technologies). […] Analysis was performed using Origin package (OriginLab, Northampton, MA, USA) and dissociation constants were fitted globally for a series of at least six MST pseudo-titration experiments for each ligand. Up to 10 replicates were performed for some ligands.
For the dissociation constants obtained, we also calculated the free energy associated with the dissociation of the complex ΔGdiss according to the equation: ΔGdiss=−RTlnKd.

hNudt16 = hNudt16 (Homo sapiens, UniProt Q96DE0); assay: Enzymatic hydrolysis catalyzed by hNudt16, products quantified by HPLC; assay type: biochemical; design: 4xHis (four added histidines); made in house; conditions: 20 µM substrate, 37 °C; for Hydrolysis Products / Hydrolysis Rate, v/[E]0 (hydrolyzed substrate per minute per [enzyme] µM) / Hydrolysis Rate, v/µg (hydrolyzed substrate per minute per enzyme µg): pH 7.9, 6 mM MgCl2, nd = hydrolysis products not detected; for Susceptibility to hydrolysis by hNudt16 (in words): HPLC
Description: Enzymatic hydrolysis catalyzed by hNudt16 was performed at 37 °C in 40 mM Tris buffer (pH 7.9) containing 100 mM NaCl, 6 mM MgCl2, and 2 mM DTT. The concentration of the investigated dinucleotides and mononucleotides was 20 µM in the reaction mixture.
The hydrolytic susceptibility of the compounds was studied using HPLC. Before each experiment, 1 mL of buffer solution containing the analyte was incubated at 37 °C for 10 min. The hydrolysis process was initiated by the addition of hNudt16. To analyze the reaction progress, 200-µL aliquots of the reaction mixture were withdrawn and incubated at 96 °C for 5 min to stop the reaction through heat inactivation of the enzyme. The samples were then subjected to an HPLC system (Agilent 1200 series, Agilent Technologies, California, USA) with a reverse-phase Supelcosil LC-18-T column and UV/VIS detector. The substrates and hydrolysis products were eluted at 20 °C with a linear gradient of methanol in 0.1 M KH2PO4 (from 0% to 40%) over 15 min at a flow rate of 1.0 mL/min. Changes in the absorbance at 260 nm were continuously monitored during the analysis. Hydrolysis products were identified by comparing their retention times with those of the reference samples. The extent of decapping, determined as the percentage of the hydrolyzed substrate, was calculated using the area under the chromatographic peak of the respective compounds.

[4] = second, weaker binding site, read-out: Kd2
[5] = stronger binding site, 50 nM dye-labeled protein, read-out: Kd1

Sequence of hNudt16 (Q96DE0 whole entry): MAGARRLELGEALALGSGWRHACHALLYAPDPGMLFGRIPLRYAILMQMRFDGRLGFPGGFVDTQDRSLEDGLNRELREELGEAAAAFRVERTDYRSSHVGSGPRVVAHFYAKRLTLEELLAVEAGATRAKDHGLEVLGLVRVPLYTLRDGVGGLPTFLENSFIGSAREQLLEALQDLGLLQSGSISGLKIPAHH
T1 sequence (Q96DE0 whole entry E76Q): as the sequence (Q96DE0 whole entry) above, with E76Q counted along it

SMILES | Tm, nanoDSF (Dye-Free) (hNudt16E76Q [1]) | ∆Tm, nanoDSF (Dye-Free) (hNudt16E76Q [1]) | Tm, DSF (with SYPRO Orange) (hNudt16E76Q [2]) | ∆Tm, DSF (with SYPRO Orange) (hNudt16E76Q [2]) | ΔGdiss1 (for Kd1) (hNudt16E76Q [3]) | ΔGdiss2 (for Kd2) (hNudt16E76Q [3]) | Kd (hNudt16E76Q [3]; [4]) | Kd (hNudt16E76Q [3]; [5]) | Hydrolysis Products (hNudt16) | Hydrolysis Rate, v/[E]0 (hydrolyzed substrate per minute per [enzyme] µM) (hNudt16) | Hydrolysis Rate, v/µg (hydrolyzed substrate per minute per enzyme µg) (hNudt16) | ΔTm relative to the apo form, both DSF and nanoDSF (hNudt16E76Q [1]; 0.5 mM ligand, stated for both types of measurements) | Susceptibility to hydrolysis by hNudt16 (in words) (hNudt16)
Nc1nc2c(ncn2[C@@H]2O[C@H](COP(=O)(O)OP(=O)(O)OP(=O)(O)OC[C@H]3O[C@@H](n4cnc5c(=O)[nH]c(N)nc54)[C@H](O)[C@@H]3O)[C@@H](O)[C@H]2O)c(=O)[nH]1 [GpppG] | 76.0 ± 0.1 °C | 10.9 ± 0.1 °C | 74.8 ± 0.1 °C | 11.0 ± 0.1 °C |  |  |  |  |  |  |  |  | 
Nc1ccn([C@@H]2O[C@H](COP(=O)(O)OP(=O)(O)O)[C@@H](O)[C@H]2O)c(=O)n1 [CDP, Cytidine diphosphate] | 66.8 ± 0.1 °C | 1.66 ± 0.1 °C | 65.6 ± 0.1 °C | 1.81 ± 0.1 °C |  |  |  |  |  |  |  |  | 
O=c1[nH]cnc2c1ncn2[C@@H]1O[C@H](COP(=O)(O)OP(=O)(O)O)[C@@H](O)[C@H]1O [IDP, Inosine diphosphate] | 82.9 ± 0.1 °C | 17.8 ± 0.1 °C | 81.5 ± 0.1 °C | 17.8 ± 0.1 °C | 10.04 kcal/mol | 8.078 kcal/mol | 1.2 ± 0.2 µM |  |  |  |  | 17.5–18.0 °C | very rapid hydrolysis reaction
Nc1nc2c(ncn2[C@@H]2O[C@H](COP(=O)(O)OP(=O)(O)O)[C@@H](O)[C@H]2O)c(=O)[nH]1 [GDP, Guanosine diphosphate] | 78.6 ± 0.1 °C | 13.5 ± 0.1 °C | 77.0 ± 0.1 °C | 13.3 ± 0.1 °C | 8.97 kcal/mol | 5.911 kcal/mol | 45.6 ± 2.4 µM | 0.258 ± 0.045 µM |  |  |  |  | 
Nc1ncnc2c1ncn2[C@@H]1O[C@H](COP(=O)(O)OP(=O)(O)OC[C@H]2O[C@@H](n3cnc4c(N)ncnc43)[C@H](O)[C@@H]2O)[C@@H](O)[C@H]1O [AppA] | 66.8 ± 0.1 °C | 1.7 ± 0.1 °C | 65.2 ± 0.1 °C | 1.5 ± 0.1 °C | 4.192 kcal/mol |  |  | 833 µM | AMP | 40.8 ± 2.9 µM/min/[E]0 | 1.70 ± 0.12 µM/min/µg |  | 

Results, then the compound that gave them:

Tm, nanoDSF (Dye-Free) (hNudt16E76Q [1]) | ∆Tm, nanoDSF (Dye-Free) (hNudt16E76Q [1]) | Tm, DSF (with SYPRO Orange) (hNudt16E76Q [2]) | ∆Tm, DSF (with SYPRO Orange) (hNudt16E76Q [2]) | ΔGdiss1 (for Kd1) (hNudt16E76Q [3]) | ΔGdiss2 (for Kd2) (hNudt16E76Q [3]) | Kd (hNudt16E76Q [3]; [4]) | Kd (hNudt16E76Q [3]; [5]) | Hydrolysis Products (hNudt16) | Hydrolysis Rate, v/[E]0 (hydrolyzed substrate per minute per [enzyme] µM) (hNudt16) | Hydrolysis Rate, v/µg (hydrolyzed substrate per minute per enzyme µg) (hNudt16) | ΔTm relative to the apo form, both DSF and nanoDSF (hNudt16E76Q [1]; 0.5 mM ligand, stated for both types of measurements) | Susceptibility to hydrolysis by hNudt16 (in words) (hNudt16) | SMILES
68.1 ± 0.1 °C | 3.1 ± 0.1 °C | 67.0 ± 0.1 °C | 3.3 ± 0.1 °C | 5.951 kcal/mol | ≤2.481 kcal/mol | ≥ 15000 µM | 43 µM | AMP + dpCop | 18.0 ± 1.3 µM/min/[E]0 | 0.75 ± 0.05 µM/min/µg |  |  | CC(C)(COP(=O)(O)OP(=O)(O)OC[C@H]1O[C@@H](n2cnc3c(N)ncnc32)[C@H](O)[C@@H]1O)[C@@H](O)C(=O)NCCC(=O)NCCS [dpCoA, Dephospho-coenzyme A]
66.1 ± 0.1 °C | 1.1 ± 0.1 °C | 63.7 ± 0.1 °C | 0.0 ± 0.1 °C |  |  |  |  | NMN + AMP | 3.4 ± 0.4 µM/min/[E]0 | 0.14 ± 0.02 µM/min/µg |  |  | NC(=O)c1ccc[n+]([C@@H]2O[C@H](COP(=O)([O-])OP(=O)(O)OC[C@H]3O[C@@H](n4cnc5c(N)ncnc54)[C@H](O)[C@@H]3O)[C@@H](O)[C@H]2O)c1 [NAD, Nicotinamide adenine dinucleotide]
67.4 ± 0.1 °C | 2.4 ± 0.1 °C | 64.9 ± 0.1 °C | 1.1 ± 0.1 °C |  |  |  |  | AMP + NMNH | 18.7 ± 1.5 µM/min/[E]0 | 0.78 ± 0.06 µM/min/µg |  |  | NC(=O)C1=CN([C@@H]2O[C@H](COP(=O)(O)OP(=O)(O)OC[C@H]3O[C@@H](n4cnc5c(N)ncnc54)[C@H](O)[C@@H]3O)[C@@H](O)[C@H]2O)C=CC1 [NADH, Reduced NAD+]
66.7 ± 0.1 °C | 1.6 ± 0.1 °C | 64.4 ± 0.1 °C | 0.7 ± 0.1 °C |  |  |  |  |  |  |  |  | resistant to hydrolytic cleavage | C[n+]1cn([C@@H]2O[C@H](COP(=O)(O)OP(=O)(O)O)[C@@H](O)[C@H]2O)c2nc(N)[nH]c(=O)c21 [m^7GDP, 7-methylguanosine diphosphate]
73.5 ± 0.1 °C | 8.4 ± 0.1 °C | 72.3 ± 0.1 °C | 8.5 ± 0.1 °C | 8.026 kcal/mol |  | 230 ± 57 µM | 1.7 µM |  |  |  |  |  | Cn1c[n+]([C@@H]2O[C@H](COP(=O)(O)OP(=O)([O-])OP(=O)(O)OC[C@H]3O[C@@H](n4cnc5c(=O)[nH]c(N)nc54)[C@H](O)[C@@H]3O)[C@@H](O)[C@H]2O)c2nc(N)[nH]c(=O)c21 [m^7GpppG]
